≈ marks a conversion by molar mass, not a printed value. Read-outs that look alike come from different tables or passages of the source.
Legend:
[1] = tested on: P. aeruginosa NMI 7197/19; type: cell-based, Pseudomonas aeruginosa; settings: NMI 7197/19, 20 h
Procedure: (§1) MIC values of the peptidomimetics were evaluated by using the modified Hancock lab protocol in non-binding polystyrene microtiter plates. Bacterial suspensions of ~5 × 10^5 CFU/mL in Mueller-Hinton broth (Difco, Sparks, MD, USA) were prepared with Mg^2+ and Ca^2+ concentrations of 4 mg/L each. The compounds were dissolved in H2O and diluted in 0.01% acetic acid, 0.2% BSA (final concentration). Aliquots (11 µL) of test compounds were then transferred to wells containing bacterial suspensions (100 µL). Low-binding sterile tubes and tips (Axygen, Union City, CA, USA) were used for preparation and transfer of the solutions of the compounds. Following incubation for 20 h of the covered plates at 35 °C (±2 °C) with circular shaking at 180 rpm, the MICs were read.

P. aeruginosa PAO1 = type: cell-based, Pseudomonas aeruginosa; settings: PAO1, 20 h
Procedure: as §1

E. coli NMI 3371/16 = type: cell-based, Escherichia coli; settings: NMI 3371/16, 20 h
Procedure: as §1

E. coli NMI 3898/15 = type: cell-based, Escherichia coli; settings: NMI 3898/15, 20 h
Procedure: as §1

E. coli ATCC 25922 = type: cell-based, Escherichia coli; settings: ATCC 25922, 20 h
Procedure: as §1

E. faecalis ATCC 29212 = type: cell-based; settings: ATCC 29212, 20 h
Procedure: as §1

K. pneumoniae ATCC 13883 = type: cell-based
Procedure: as §1

A. baumannii ATCC 19606 = type: cell-based, Acinetobacter baumannii; settings: ATCC 19606, 20 h
Procedure: as §1

A. baumannii NMI 3658/17 = type: cell-based, Acinetobacter baumannii; settings: NMI 3658/17, 20 h
Procedure: as §1

S. aureus ATCC 29213 = type: cell-based, Staphylococcus aureus; settings: ATCC 29213, 20 h
Procedure: as §1

[2] = Hydrophobicity by retention in analytical RP-HPLC (% MeCN at peak elution); type: physicochemical; settings: for % MeCN at Elution, Aeris Peptide: Phenomenex Aeris Peptide XB-C18 column; for % MeCN at Elution, Aeris Peptide / % MeCN at Elution, Luna Omega / % MeCN at Elution, Supelco Discovery: gradient 0→60% B during 15 min; for % MeCN at Elution, Luna: Phenomenex Luna C18(2) column, RP-HPLC gradient 0→60% B during 15 min, relative hydrophobicity; for % MeCN at Elution, Luna Omega: Phenomenex Luna Omega Polar C18 column; for % MeCN at Elution, Supelco Discovery: Supelco Discovery BIO Wide pore C18 column
Procedure: For each peptide/β-peptoid hybrid oligomer, the retention time in RP-HPLC was measured on four different columns (details shown in Table 2): Phenomenex Luna C18(2) column (recommended for hydrophobic compounds [49]), Phenomenex Luna Omega Polar C18 column (recommended for both very polar and non-polar compounds [50]) as well as Phenomenex Aeris Peptide XB-C18 [51] and Sigma-Aldrich Supelco Discovery BIO Wide pore C18 [52] columns, which both are recommended for analysis of peptides. The retention times of the compounds on each column were used to calculate the acetonitrile concentration at peak elution (denoted merely as % MeCN; Table 1). As expected, the % MeCN for each compound varied somewhat between the four columns.
Starting materials and solvents were acquired from commercial suppliers (Iris Biotech, Markredwitz, Germany; Fluorochem, Hadfield, UK; and Merck, Darmstadt, Germany) and used without further purification. Water used for analytical and preparative high-performance liquid chromatography (HPLC) was filtered through a 0.22-μm capsule filter using an Evoqua LaboStar Pro TWF UV system. Purity and retention time of each peptidomimetic were determined by analytical HPLC by using a Phenomenex Luna Omega Polar C18 column (150 × 4.6 mm; particle size: 3 μm; pore size: 100 Å) on a Shimadzu Prominence and Shimadzu Nexera system using an aqueous acetonitrile (MeCN, VWR, Søborg, Denmark) gradient with 0.1% trifluoroacetic acid (TFA, Iris Biotech, Markredwitz, Germany) added (eluent A: 5:95 MeCN–H2O + 0.1% TFA, eluent B: 95:5 MeCN–H2O + 0.1% TFA); a flow rate of 0.8 mL/min was used. For elution of peptidomimetics, a linear gradient of 0% to 60% B during 15 min was used with UV detection at λ = 220 nm. […] Retention time of each peptidomimetic was also determined by using a Phenomenex Luna C18(2) column (150 × 4.6 mm; particle size: 3 μm; pore size: 100 Å), a Phenomenex Aeris Peptide XB-C18 column (150 × 4.6 mm; particle size: 3.6 μm; pore size: 100 Å), and a Sigma-Aldrich Supelco Discovery BIO Wide pore C18 column (150 × 4.6 mm, particle size: 3 µm; pore size: 300 Å). For each peptidomimetic, the percentage of MeCN at peak elution was calculated from the retention time by using the following formula:(1) %MeCN =0.95 (0.6Rt/15 min)+0.05 (1−0.6Rt/15 min)

[3] = tested on: HepG2 cell line ATCC HB-8065; assay: Antiproliferative activity on HepG2 cell line (MTT assay); type: cell-based; settings: inhibition of growth of HepG2 cells, 48 h, MTT; highest concentration tested 1280 µg/mL
Procedure: (§2) Effect of compounds on mammalian cell viability was estimated on the HepG2 cell line ATCC HB-8065. In brief, HepG2 cells were seeded into flat-bottomed 96-well plates at a concentration of 5000 cells per well. Subsequently, the cells were incubated for 24 h in a humidified incubator (5% CO2, 37 °C). Then, the medium was removed, and the cells were incubated for 48 h in a humidified incubator (5% CO2, 37 °C) with peptidomimetics in serial dilutions. Then, an 3-(4,5-dimethylthiazol-2-yl)-2,5-diphenyltetrazolium bromide (MTT) assay was performed as previously described. In brief, after incubation with the test compounds, the culture medium was removed, and then fresh medium with 0.2 mg/mL MTT was added into each well of the plate. The cells were then incubated (3 h, 37 °C, 5% CO2), followed by removal of the medium with MTT and addition of 200 μL dimethyl sulfoxide at once to each sample. Absorbance of MTT was measured using the spectrophotometer TECAN Infinite M1000 at 540 nm. The relative viability was calculated by using the formula: ODtreated cells × 100/ODcontrol cells. The IC50 values are calculated by using the program Graph Pad Prism® 5.0. For all compounds, the test range was 10–1280 μg/mL.

[4] = as above; type: cell-based; settings: HepG2 cells; at 1280 µg/mL, value in parenthesis; read-out: HepG2 cell viability at highest concentration tested
Procedure: as §2

[5] = Determination of hemolytic activity; type: cell-based; settings: red blood cell suspension in PBS buffer, human red blood cells at 400 µg/mL, 37 °C
Procedure: The lysis of human red blood cells was measured almost as previously described, albeit with modifications. In brief, a suspension of freshly drawn human red blood cells (hRBCs) was washed three times with PBS buffer and centrifuged two times for 5 min at 2500 rpm. A two-fold serial dilution of compounds in PBS buffer was prepared. Plates (conical-bottomed 96-well plates) with three replicate wells per dilution, each containing 1% red blood cell suspension, were prepared and dosed with the test compound to achieve a final concentration of 400 μg/mL in a total volume of 100 μL. The plates were incubated (37 °C) for 60 min with mild agitation, and then the cells were pelleted by centrifugation at 1500 rpm for 5 min. The supernatants (50 μL) were then transferred to a fresh 96-well plate, and the concentration of hemoglobin was detected by measuring the OD at 405 nm. The OD of cells incubated with 1% SDS defined 100% hemolysis, while the OD of cells incubated with PBS buffer defined 0% hemolysis. The concentration tested was 400 μg/mL (only average values are stated in Table 5). The percent hemolysis was calculated by using the formula:(3) Hemolysis (%)=100×[Asample−Aneg.control/Apos.control−Aneg.control]

Compound	MIC, P. aeruginosa NMI 7197/19 [1] [µg/mL]	MIC, PA (P. aeruginosa PAO1) [µg/mL]	MIC, E. coli NMI 3371/16 (E. coli NMI 3371/16) [µg/mL]	MIC, E. coli NMI 3898/15 (E. coli NMI 3898/15) [µg/mL]	MIC against E. coli (E. coli ATCC 25922) [µM]	MIC, EC (E. coli ATCC 25922) [µg/mL]	MIC, EF (E. faecalis ATCC 29212) [µg/mL]	MIC, KP (K. pneumoniae ATCC 13883; ATCC 13883, 20 h) [µg/mL]	MIC, AB (A. baumannii ATCC 19606) [µg/mL]	MIC, A. baumannii NMI 3658/17 (A. baumannii NMI 3658/17) [µg/mL]	MIC, SA (S. aureus ATCC 29213) [µg/mL]	% MeCN at Elution, Aeris Peptide [2] [% MeCN]	% MeCN at Elution, Luna [2] [% MeCN]	% MeCN at Elution, Luna Omega [2] [% MeCN]	% MeCN at Elution, Supelco Discovery [2] [% MeCN]	HepG2 IC50 [3] [µg/mL]	viability at 48 h [4] [%]	hemolysis at 60 min [5] [%]	MIC, KP (K. pneumoniae ATCC 13883)
NCCCC[C@H](NC(=O)CCN(Cc1ccc(F)cc1)C(=O)[C@H](CCCCN)NC(=O)CCOCCOCCOCCOCCNC(=O)CCN(Cc1ccc(F)cc1)C(=O)[C@H](CCCCN)NC(=O)CCN(Cc1ccc(F)cc1)C(=O)[C@H](CCCCN)NC(=O)CCOCCOCCOCCOCCNC(=O)CCN(Cc1ccc(F)cc1)C(=O)[C@H](CCCCN)NC(=O)CCN(Cc1ccc(F)cc1)C(=O)[C@@H](N)CCCCN)C(=O)N(CCC(N)=O)Cc1ccc(F)cc1 [Compound 18, H-[X]2-sPEG4-[X]2-sPEG4-[X]2-NH2]	>64	>64	8 to 16	16 (≈ 6.79 µM)	1.2 to 2.4	4 to 8	>64	64 (≈ 27.2 µM)	8 to 16	16 (≈ 6.79 µM)	>64	40.1	42.1	42.7	42.3	~1280	41	8.3	–
NCCCC[C@H](NC(=O)CCN(Cc1ccc(F)cc1)C(=O)[C@H](CCCCN)NC(=O)CCN(Cc1ccc(F)cc1)C(=O)[C@H](CCCCN)NC(=O)COCCOCCOCCNC(=O)CCN(Cc1ccc(F)cc1)C(=O)[C@H](CCCCN)NC(=O)CCN(Cc1ccc(F)cc1)C(=O)[C@H](CCCCN)NC(=O)CCN(Cc1ccc(F)cc1)C(=O)[C@@H](N)CCCCN)C(=O)N(CCC(N)=O)Cc1ccc(F)cc1 [Compound 8, H-[X]3-sPEG3-[X]3-NH2]	>64	32 (≈ 15.6 µM)	4 (≈ 1.95 µM)	8 (≈ 3.9 µM)	–	4 (≈ 1.95 µM)	>64	>64	4 to 8	4 (≈ 1.95 µM)	–	39.6	41.7	42.1	41.9	601	10	8.9	–
NCCCC[C@H](NC(=O)CCN(Cc1ccc(F)cc1)C(=O)[C@H](CCCCN)NC(=O)CCN(Cc1ccc(F)cc1)C(=O)[C@H](CCCCN)NC(=O)COCCNC(=O)CCN(Cc1ccc(F)cc1)C(=O)[C@H](CCCCN)NC(=O)CCN(Cc1ccc(F)cc1)C(=O)[C@H](CCCCN)NC(=O)CCN(Cc1ccc(F)cc1)C(=O)[C@@H](N)CCCCN)C(=O)N(CCC(N)=O)Cc1ccc(F)cc1 [Compound 6, H-[X]3-sPEG1-[X]3-NH2]	>64	32 (≈ 16.3 µM)	4 (≈ 2.04 µM)	8 (≈ 4.08 µM)	–	4 (≈ 2.04 µM)	–	–	4 to 8	4 (≈ 2.04 µM)	32 to 64	39.2	41.2	41.6	41.4	761	6	7.7	64–>64

Reference: paper PMC8268887, “Peptide/β-Peptoid Hybrids with Ultrashort PEG-Like Moieties: Effects on Hydrophobicity, Antibacterial Activity and Hemolytic Properties” (International Journal of Molecular Sciences, 2021)
